In US9708267B2, “Activators of human pyruvate kinase” (The United States of America, as represented by the …, priority 2010, dated 2017):
Where two headings read alike, the source gives them in different places.

Biological target: hPK, M2 (Homo sapiens, UniProt P14618)
Assay: luminescent pyruvate kinase-luciferase coupled assay (qHTS)
Format: biochemical
Details: for Emax: read-out: Max. Res.; for activation at 57 µM: % activation at 57 μM of compound, read-out: hPK, M2 Max. Res.
Method: AC50 values were determined utilizing the luminescent pyruvate kinase-luciferase coupled assay (Inglese, J. et al, Quantitative high-throughput screening: a titration-based approach that efficiently identifies biological activities in large chemical libraries. Proc. Natl. Acad. Sci. U.S.A. 2006, 103, 11473-11478).
Luminescent Pyruvate Kinase-Luciferase Coupled Assay.
Production of a luminescent signal based on the generation of ATP by pyruvate kinase was determined by using the ATP-dependent enzyme firefly luciferase. Three μL of substrate mix (at r.t.) in assay buffer (50 mM imidazole pH 7.2, 50 mM KCl, 7 mM MgCl2, 0.01% tween 20, 0.05% BSA) was dispensed into Kalypsys (San Diego, Calif., USA) white solid bottom 1,536 well microtiter plates using a bottle-valve solenoid-based dispenser (Kalypsys). The final concentrations of substrates in the assay were 0.1 mM ADP and 0.5 mM PEP. Twenty-three nL of compound in DMSO were delivered with a 1,536-pin array tool, and 1 μL of enzyme mix in assay buffer (final concentration, 0.1 nM pyruvate kinase, 50 mM imidazole pH 7.2, 0.05% BSA, 4° C.) was added. Microtiter plates were incubated at r.t. for 1 hour and 2 uL of luciferase detection mix (Kinase-Glo from Promega, Madison, Wis., USA) at 4° C. protected from light, was added and luminescence was read with a ViewLux (Perkin Elmer, Waltham, Mass., USA) using a 2 second exposure/plate (with 2× binning). The final concentration of DMSO was 0.5% and found not to affect the assay signal.
Data was normalized for AC50 values to control columns containing uninhibited enzyme (n), and AC100 inhibition (i) according the following equation: Activation (%)=[(c−n)/(n−i)]*100 where c=compound, n=DMSO neutral, i=no enzyme control. A % activity of 100% is approximately a 2-fold increase over basal assay signal (% Activation by FBP was variable but averaged 100%). Monitoring of activation was accomplished using enzyme at 3× the final concentration.
All compounds were screened using a qHTS approach, where compounds are assayed using at least seven concentrations to generate concentration-response curves for every compounds. Briefly, qHTS uses an inter-plate dilution method where the first plate contains the highest concentration of a set of compounds in DMSO, while subsequent plates contain the same compounds in the same well locations, but at successive lower concentrations. Using the protocol outlined above, the rate was calculated as a plate throughput of 18 plates/hr or approximately 7 samples/sec on the Kalypsys robotic system which means that a 7 point CRC was obtained every second on the robotic system.

[1] = Table 4, 0.1 mM ADP, 0.5 mM PEP, read-out: AC50
[2] = Table 4, maximum response (activation)
[3] = Table 2, 0.1 mM ADP, 0.5 mM PEP, mean of three replicate experiments, read-out: hPK, M2 AC50
[4] = Table 2, mean of three replicate experiments
[5] = Table 1, 0.1 mM ADP, 0.5 mM PEP, mean of three replicate experiments, read-out: hPK, M2 AC50
[6] = Table 1, mean of three replicate experiments
[7] = Table 3, 0.1 mM ADP, 0.5 mM PEP, mean of three replicate experiments, read-out: hPK, M2 AC50
[8] = Table 3, mean of three replicate experiments
[9] = linkage variants of compound 4, read-out: AC50

hPK, M2, sequence (P14618 whole entry): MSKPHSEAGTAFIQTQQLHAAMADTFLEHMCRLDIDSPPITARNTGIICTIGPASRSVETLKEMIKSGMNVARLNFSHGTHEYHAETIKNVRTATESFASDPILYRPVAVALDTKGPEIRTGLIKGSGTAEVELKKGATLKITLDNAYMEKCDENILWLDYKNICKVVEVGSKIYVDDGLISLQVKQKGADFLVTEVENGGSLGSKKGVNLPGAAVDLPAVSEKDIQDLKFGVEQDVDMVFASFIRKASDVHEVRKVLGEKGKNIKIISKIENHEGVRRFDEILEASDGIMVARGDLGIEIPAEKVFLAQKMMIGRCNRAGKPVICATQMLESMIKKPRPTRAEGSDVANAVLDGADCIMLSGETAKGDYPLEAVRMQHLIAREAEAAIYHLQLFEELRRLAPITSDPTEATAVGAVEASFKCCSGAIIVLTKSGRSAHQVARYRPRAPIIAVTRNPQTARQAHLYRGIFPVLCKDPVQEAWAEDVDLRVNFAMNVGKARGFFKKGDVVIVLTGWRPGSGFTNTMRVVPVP

## Cc1ccc(NS(=O)(=O)c2cc3c(cc2N(C)CCN(C)C)NC(=O)CC3)cc1C [Compound 61, 7-((2-(dimethylamino)ethyl)(methyl)amino)-N-(3,4-dimethylphenyl)-2-oxo-1,2,3,4-tetrahydroquinoline-6-sulfonamide]
[1]
  AC50: 5840 nM
[2]
  Emax: 70.5%

## O=C1CCc2cc(S(=O)(=O)Nc3ccc(Cl)cc3)ccc2N1 [Compound 20, N-(4-chlorophenyl)-2-oxo-1,2,3,4-tetrahydroquinoline-6-sulfonamide]
[3]
  AC50: 3200 nM
[4]
  activation at 57 µM: 94%

## Cc1ccc(NS(=O)(=O)c2ccc3c(c2)CCC(=O)N3)cc1F [Compound 55, N-(3-fluoro-4-methylphenyl)-2-oxo-1,2,3,4-tetrahydroquinoline-6-sulfonamide]
[1]
  AC50: 460 nM
[2]
  Emax: 131%

## COc1cccc(NS(=O)(=O)c2ccc3c(c2)CCC(=O)N3)c1 [Compound 15, N-(3-methoxyphenyl)-2-oxo-1,2,3,4-tetrahydroquinoline-6-sulfonamide]
[3]
  AC50: 3200 nM
[4]
  activation at 57 µM: 91%

## O=C1CCc2cc(S(=O)(=O)Nc3cccc(B(O)O)c3)ccc2N1 [Compound 52, 3-(2-oxo-1,2,3,4-tetrahydroquinoline-6-sulfonamido)phenylboronic acid]
[1]
  AC50: 820 nM
[2]
  Emax: 99.3%

## Cc1ccccc1NS(=O)(=O)c1ccc2c(c1)CCC(=O)N2 [Compound 24, 2-oxo-N-o-tolyl-1,2,3,4-tetrahydroquinoline-6-sulfonamide]
[3]
  AC50: 3900 nM
[4]
  activation at 57 µM: 96%

## C[C@@H](CO)Nc1cc2c(cc1S(=O)(=O)Nc1ccc(F)c(Cl)c1)CCC(=O)N2 [Compound 73, (S)—N-(3-chloro-4-fluorophenyl)-7-(1-hydroxypropan-2-ylamino)-2-oxo-1,2,3,4-tetrahydroquinoline-6-sulfonamide]
[1]
  AC50: 140 nM
[2]
  Emax: 95%

## Cc1ccc(NS(=O)(=O)c2cc3c(cc2Cl)NC(=O)C3)cc1C [Compound 57, 6-chloro-N-(3,4-dimethylphenyl)-2-oxoindoline-5-sulfonamide]
[1]
  AC50: 920 nM
[2]
  Emax: 108%

## Cc1ccc(Cl)cc1NS(=O)(=O)c1cc2c(cc1Cl)CCC(=O)N2 [Compound 45, 6-chloro-N-(5-chloro-2-methylphenyl)-2-oxo-1,2,3,4-tetrahydroquinoline-7-sulfonamide]
[1]
  AC50: 2910 nM
[2]
  Emax: 109%

## Cc1ccc(NS(=O)(=O)c2ccc3c(c2)CCC(=O)N3)cc1Cl [Compound 43, N-(3-chloro-4-methylphenyl)-2-oxo-1,2,3,4-tetrahydroquinoline-6-sulfonamide]
[1]
  AC50: 260 nM
[2]
  Emax: 122%

## Cc1ccc(NS(=O)(=O)c2cc3c(cc2F)NC(=O)CC3)cc1Cl [Compound 51, N-(3-chloro-4-methylphenyl)-7-fluoro-2-oxo-1,2,3,4-tetrahydroquinoline-6-sulfonamide]
[1]
  AC50: 120 nM
[2]
  Emax: 102%

## CC(=O)N1CCc2cc(S(=O)(=O)Nc3ccc(C)c(C)c3)ccc21 [Compound 11, 1-acetyl-N-(3,4-dimethylphenyl)indoline-5-sulfonamide]
[5]
  AC50: 1800 nM
[6]
  activation at 57 µM: 65%

## Cc1ccc(NS(=O)(=O)c2cc3c(cc2NCC(C)(C)O)NC(=O)CC3)cc1C [Compound 64, N-(3,4-dimethylphenyl)-7-(2-hydroxy-2-methylpropylamino)-2-oxo-1,2,3,4-tetrahydroquinoline-6-sulfonamide]
[1]
  AC50: 1830 nM
[2]
  Emax: 100%

## Cc1ccc(Cl)cc1NS(=O)(=O)c1cc2c(cc1F)NC(=O)CC2 [Compound 48, N-(5-chloro-2-methylphenyl)-7-fluoro-2-oxo-1,2,3,4-tetrahydroquinoline-6-sulfonamide]
[1]
  AC50: 4610 nM
[2]
  Emax: 94.6%

## Cc1ccc(NS(=O)(=O)c2cc3c(cc2N2CCC(N(C)C)C2)NC(=O)CC3)cc1C (stereo not drawn) [Compound 63, 7-(3-(dimethylamino)pyrrolidin-1-yl)-N-(3,4-dimethylphenyl)-2-oxo-1,2,3,4-tetrahydroquinoline-6-sulfonamide]
[1]
  AC50: 8190 nM
[2]
  Emax: 102%

## O=C1CCc2cc(S(=O)(=O)Nc3cccc(Cl)c3)ccc2N1 [Compound 13, N-(3-chlorophenyl)-2-oxo-1,2,3,4-tetrahydroquinoline-6-sulfonamide]
[3]
  AC50: 650 nM
[4]
  activation at 57 µM: 100%

## O=C1CCc2cc(S(=O)(=O)Nc3cccc4ccccc34)ccc2N1 [Compound 28, N-(naphthalen-1-yl)-2-oxo-1,2,3,4-tetrahydroquinoline-6-sulfonamide]
[3]
  AC50: 10000 nM
[4]
  activation at 57 µM: 101%

## Cc1ccc(NS(=O)(=O)c2cc3c(cc2Br)NC(=O)CO3)cc1C [Compound 38, 6-bromo-N-(3,4-dimethylphenyl)-3-oxo-3,4-dihydro-2H-benzo[b][1,4]oxazine-7-sulfonamide]
[7]
  AC50: 18000 nM
[8]
  activation at 57 µM: 103%

## Cc1ccc(NS(=O)(=O)c2cc3c(cc2Cl)CCC(=O)N3)cc1C [Compound 35, 6-chloro-N-(3,4-dimethylphenyl)-2-oxo-1,2,3,4-tetrahydroquinoline-7-sulfonamide]
[7]
  AC50: 260 nM
[8]
  activation at 57 µM: 104%

## Cc1cc(NS(=O)(=O)c2cc3c(cc2N[C@@H](C)CO)NC(=O)CC3)ccc1F [Compound 72, (S)—N-(4-fluoro-3-methylphenyl)-7-(1-hydroxypropan-2-ylamino)-2-oxo-1,2,3,4-tetrahydroquinoline-6-sulfonamide]
[1]
  AC50: 270 nM
[2]
  Emax: 99%

## COc1ccc(NS(=O)(=O)c2ccc3c(c2)CCC(=O)N3)cc1 [Compound 22, N-(4-methoxyphenyl)-2-oxo-1,2,3,4-tetrahydroquinoline-6-sulfonamide]
[3]
  AC50: 36000 nM
[4]
  activation at 57 µM: 47%

## O=C1CCc2cc(S(=O)(=O)Nc3ccc4c(c3)OCCO4)ccc2N1 [Compound 29, N-(2,3-dihydrobenzo[b][1,4]dioxin-6-yl)-2-oxo-1,2,3,4-tetrahydroquinoline-6-sulfonamide]
[3]
  AC50: 16000 nM
[4]
  activation at 57 µM: 86%

## Cc1ccc(N(C)S(=O)(=O)c2ccc3c(c2)CCC(=O)N3)cc1C [Compound 41, N-(3,4-dimethylphenyl)-N-methyl-2-oxo-1,2,3,4-tetrahydroquinoline-6-sulfonamide]
[2]
  Max. Res.: 36.00
[9]
  AC50: 23100 nM
Linkage variants of compound 4
  Emax: 36%

## Cc1ccc(NS(=O)(=O)c2cc3c(cc2Cl)NC(=O)CO3)cc1C [Compound 37, 6-chloro-N-(3,4-dimethylphenyl)-3-oxo-3,4-dihydro-2H-benzo[b][1,4]oxazine-7-sulfonamide]
[7]
  AC50: 580 nM
[8]
  activation at 57 µM: 95%

## Cc1ccc(NS(=O)(=O)c2cc3c(cc2N[C@@H](C)CO)NC(=O)CC3)cc1C [Compound 68, (S)—N-(3,4-dimethylphenyl)-7-(1-hydroxypropan-2-ylamino)-2-oxo-1,2,3,4-tetrahydroquinoline-6-sulfonamide]
[1]
  AC50: 90 nM
[2]
  Emax: 131%

## O=C1CCc2cc(S(=O)(=O)Nc3ccc4ccccc4c3)ccc2N1 [Compound 27, N-(naphthalen-2-yl)-2-oxo-1,2,3,4-tetrahydroquinoline-6-sulfonamide]
[3]
  AC50: 2900 nM
[4]
  activation at 57 µM: 87%

## Cc1ccc(NC(=O)c2ccc3c(c2)CCC(=O)N3)cc1C [Compound 42, N-(3,4-dimethylphenyl)-2-oxo-1,2,3,4-tetrahydroquinoline-6-carboxamide]
[2]
  Max. Res.: 5
[9]
  AC50: 40000 nM
Linkage variants of compound 4
  Emax: 5%

## Cc1ccc(NS(=O)(=O)c2cc3c(cc2Cl)CCC(=O)N3)cc1Cl [Compound 49, 6-chloro-N-(3-chloro-4-methylphenyl)-2-oxo-1,2,3,4-tetrahydroquinoline-7-sulfonamide]
[1]
  AC50: 650 nM
[2]
  Emax: 112%

## Cc1ccc(NS(=O)(=O)c2ccc3c(c2)CCCC(=O)N3)cc1C [Compound 6, N-(3,4-dimethylphenyl)-2-oxo-2,3,4,5-tetrahydro-1H-benzo[b]azepine-7-sulfonamide]
[5]
  AC50: 18000 nM
[6]
  activation at 57 µM: 66%
